Each structure is given as a SMILES string. Where two headings read alike, the source gives them in different places.

Results on 13 molecules are retold here after patent publication US20250243180A1, “TARGETED PROTEIN DEGRADATION” (Monte Rosa Therapeutics AG, priority 2023, published 2025).

One assay concerns the target NEK7 (Homo sapiens (Human), UniProt Q8TDX7+Q96SW2). Put plainly: NEK7 NanoBiT degradation assay in Cal51 NEK7 NanoBiT cell line. The class given is cell-based. The following applies: Cal51 NEK7 NanoBiT cells, 24 hours; for Dmax: CAL-51. In short, it runs like this:
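EC50 comes from a 4-parameter fit of control-normalized luminescence. The luminescence reports HiBiT-NEK7 (endogenous knock-in) complemented by stably expressed LgBiT in Cal51 cells after 24 h compound exposure at 37 °C. Final concentrations ran 1 μM to 0.05 nM, with Endurazine substrate present in the medium throughout.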

The next assay addresses CRBN-DDB1 (Homo sapiens (Human), UniProt Q96SW2). Put plainly: Compound binding to CRBN by HTRF assay. Summed up:
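Ki calculated via Cheng-Prusoff from geometric-mean EC50 values, after normalizing the HTRF ratio to lenalidomide (active) and DMSO (neutral) controls. Compounds (11 points, 1:3 steps) incubated 30 min at ambient temperature with CRBN-DDB1 2.5 nM, anti-His Tb cryptate and Cy5-thalidomide tracer 100 nM.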

Where [1] appears, read: NEK7 degradation, read-out: NanoBiT Dmax.
The mark [2] stands for this setting: NEK7 degradation, read-out: NanoBiT DC50.

Sequence of NEK7 (Q8TDX7 whole entry): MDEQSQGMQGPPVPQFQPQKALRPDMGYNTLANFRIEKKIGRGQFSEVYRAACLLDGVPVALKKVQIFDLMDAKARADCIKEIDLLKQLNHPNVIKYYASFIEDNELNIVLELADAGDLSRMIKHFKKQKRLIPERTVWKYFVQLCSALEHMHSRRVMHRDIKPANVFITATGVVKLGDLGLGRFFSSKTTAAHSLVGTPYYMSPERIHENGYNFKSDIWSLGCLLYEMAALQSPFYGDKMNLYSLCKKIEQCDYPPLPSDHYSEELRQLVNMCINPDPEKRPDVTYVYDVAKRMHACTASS
Sequence of NEK7 (Q96SW2 whole entry): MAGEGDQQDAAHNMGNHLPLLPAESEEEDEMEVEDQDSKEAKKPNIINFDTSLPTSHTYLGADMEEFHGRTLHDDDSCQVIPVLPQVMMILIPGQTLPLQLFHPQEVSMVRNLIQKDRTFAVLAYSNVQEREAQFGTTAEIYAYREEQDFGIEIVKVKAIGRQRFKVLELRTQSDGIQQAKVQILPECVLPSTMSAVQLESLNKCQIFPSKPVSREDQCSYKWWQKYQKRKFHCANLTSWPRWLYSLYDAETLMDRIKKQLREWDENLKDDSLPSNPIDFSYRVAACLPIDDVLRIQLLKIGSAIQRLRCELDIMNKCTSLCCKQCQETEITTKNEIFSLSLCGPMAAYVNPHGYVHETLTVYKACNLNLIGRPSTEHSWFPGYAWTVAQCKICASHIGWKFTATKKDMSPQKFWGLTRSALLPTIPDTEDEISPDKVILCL
Sequence of NEK7 (Q16531 2-1140 partner): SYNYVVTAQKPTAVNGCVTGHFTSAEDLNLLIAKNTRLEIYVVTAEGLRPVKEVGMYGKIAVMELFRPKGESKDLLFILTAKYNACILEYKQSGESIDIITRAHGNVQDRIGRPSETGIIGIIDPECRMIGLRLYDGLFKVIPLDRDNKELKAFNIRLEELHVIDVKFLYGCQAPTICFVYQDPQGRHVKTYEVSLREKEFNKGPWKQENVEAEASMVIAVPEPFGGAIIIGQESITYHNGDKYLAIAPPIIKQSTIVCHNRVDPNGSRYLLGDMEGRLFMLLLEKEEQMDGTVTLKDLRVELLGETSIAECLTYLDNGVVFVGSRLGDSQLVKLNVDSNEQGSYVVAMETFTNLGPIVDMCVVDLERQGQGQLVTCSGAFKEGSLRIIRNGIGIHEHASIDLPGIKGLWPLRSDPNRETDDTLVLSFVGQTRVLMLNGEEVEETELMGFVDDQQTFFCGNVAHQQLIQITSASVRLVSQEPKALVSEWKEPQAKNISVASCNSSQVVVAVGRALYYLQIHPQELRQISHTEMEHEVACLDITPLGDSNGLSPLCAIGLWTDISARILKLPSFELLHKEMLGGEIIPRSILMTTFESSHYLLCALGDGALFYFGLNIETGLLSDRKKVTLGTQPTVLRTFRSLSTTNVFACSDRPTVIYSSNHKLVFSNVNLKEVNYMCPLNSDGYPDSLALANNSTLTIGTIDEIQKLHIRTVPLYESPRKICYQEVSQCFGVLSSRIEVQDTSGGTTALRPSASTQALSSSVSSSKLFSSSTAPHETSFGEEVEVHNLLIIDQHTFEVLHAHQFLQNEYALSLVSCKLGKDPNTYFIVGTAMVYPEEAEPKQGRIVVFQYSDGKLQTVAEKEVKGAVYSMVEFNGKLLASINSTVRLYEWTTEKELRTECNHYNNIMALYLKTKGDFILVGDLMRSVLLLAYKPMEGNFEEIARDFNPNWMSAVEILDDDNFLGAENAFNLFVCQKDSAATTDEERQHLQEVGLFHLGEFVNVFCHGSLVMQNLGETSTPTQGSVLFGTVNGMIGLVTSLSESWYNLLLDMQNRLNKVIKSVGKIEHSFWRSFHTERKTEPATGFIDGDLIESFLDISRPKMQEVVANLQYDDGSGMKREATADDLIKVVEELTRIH
Sequence of CRBN-DDB1 (Q96SW2 whole entry): as the sequence (Q96SW2 whole entry) above
Sequence of CRBN-DDB1 (Q16531 whole entry partner): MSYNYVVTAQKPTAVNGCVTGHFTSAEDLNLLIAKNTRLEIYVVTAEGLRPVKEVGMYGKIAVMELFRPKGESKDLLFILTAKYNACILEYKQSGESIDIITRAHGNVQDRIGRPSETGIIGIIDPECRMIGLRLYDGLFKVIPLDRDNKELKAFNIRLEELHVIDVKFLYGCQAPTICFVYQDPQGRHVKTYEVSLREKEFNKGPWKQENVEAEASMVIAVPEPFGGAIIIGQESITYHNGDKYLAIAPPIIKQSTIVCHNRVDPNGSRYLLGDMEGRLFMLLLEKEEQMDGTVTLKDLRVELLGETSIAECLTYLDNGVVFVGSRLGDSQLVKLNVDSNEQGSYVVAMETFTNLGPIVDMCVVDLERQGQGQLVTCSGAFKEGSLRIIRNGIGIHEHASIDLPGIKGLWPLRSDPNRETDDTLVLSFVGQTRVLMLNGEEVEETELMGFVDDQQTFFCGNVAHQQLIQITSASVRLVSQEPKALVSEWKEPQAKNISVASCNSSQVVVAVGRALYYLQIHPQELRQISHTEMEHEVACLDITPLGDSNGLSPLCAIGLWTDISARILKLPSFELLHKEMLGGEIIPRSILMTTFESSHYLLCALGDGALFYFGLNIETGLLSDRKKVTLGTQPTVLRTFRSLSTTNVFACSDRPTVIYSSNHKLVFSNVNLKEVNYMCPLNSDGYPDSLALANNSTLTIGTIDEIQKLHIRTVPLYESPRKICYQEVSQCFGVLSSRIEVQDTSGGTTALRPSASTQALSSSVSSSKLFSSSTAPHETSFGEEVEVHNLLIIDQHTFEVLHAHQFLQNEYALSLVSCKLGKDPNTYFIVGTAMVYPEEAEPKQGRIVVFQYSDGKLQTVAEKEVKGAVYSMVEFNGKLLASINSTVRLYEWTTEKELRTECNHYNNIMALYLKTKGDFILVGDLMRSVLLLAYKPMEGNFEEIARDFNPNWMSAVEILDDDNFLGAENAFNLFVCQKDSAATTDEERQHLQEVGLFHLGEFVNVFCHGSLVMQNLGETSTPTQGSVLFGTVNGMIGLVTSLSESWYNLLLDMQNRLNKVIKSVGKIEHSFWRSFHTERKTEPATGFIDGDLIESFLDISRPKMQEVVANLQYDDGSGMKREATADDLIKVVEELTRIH

The Dmax is the greatest extent of degradation seen. The term DC50 denotes the concentration giving 50% degradation. One may read the EC50 as the concentration giving half of the maximal effect. `Cn1ccc(C2(C(=O)NCc3cc(Cl)c(C4CCC(=O)NC4=O)c(Cl)c3)CCC2)cc1=O` (stereo not drawn) [Compound 177]: the values for the Dmax at NEK7 (read-out: NEK7 NanoBiT Dmax) and on NEK7 (setting [1]) were 85% and more than 75%, respectively. The DC50 was 53 nM at NEK7 (read-out: NEK7 NanoBiT DC50) and not above 100 nM on NEK7 (setting [2]). For the same molecule, the EC50 on CRBN-DDB1 was 550 nM; at CRBN-DDB1 (HTRF class, Cereblon binding), 100 to 1000 nM.
Turning to `CC(C)(C(=O)NCc1cc(Cl)c(C2CCC(=O)NC2=O)c(Cl)c1)c1ncc(C2COC2)cn1` (stereo not drawn) [Compound 178], the Dmax at NEK7 (read-out: NEK7 NanoBiT Dmax) was 66%; at NEK7 (setting [1]) it was 50 to 75%. Moreover, the DC50 is 95 nM on NEK7 (read-out: NEK7 NanoBiT DC50) and not above 100 nM on NEK7 (setting [2]). The EC50 on CRBN-DDB1 was 290 nM; at CRBN-DDB1 (HTRF class, Cereblon binding), 100 to 1000 nM.
In the case of `CC(C)(C(=O)NCc1cc(Cl)c(C2CCC(=O)NC2=O)c(Cl)c1)c1nccc(C(F)F)n1` (stereo not drawn) [Compound 182], the Dmax was 72% at NEK7 (read-out: NEK7 NanoBiT Dmax) and 50 to 75% on NEK7 (setting [1]). Further, the figures for the 50% degradation concentration (DC50) on NEK7 (read-out: NEK7 NanoBiT DC50) and at NEK7 (setting [2]) were 54 nM and not above 100 nM, respectively. In addition, the concentration for a half-maximal effect (EC50) was 200 nM on CRBN-DDB1 and 100 to 1000 nM at CRBN-DDB1 (HTRF class, Cereblon binding).
Take `COCc1cnc(C(C)(C)C(=O)NCc2cc(Cl)c(C3CCC(=O)NC3=O)c(Cl)c2)nc1` (stereo not drawn) [Compound 183]: the Dmax at NEK7 (read-out: NEK7 NanoBiT Dmax) is 71%; at NEK7 (setting [1]), 50 to 75%. In addition, the values for the DC50 on NEK7 (read-out: NEK7 NanoBiT DC50) and at NEK7 (setting [2]) were 56 nM and not above 100 nM, respectively. The EC50 is 370 nM on CRBN-DDB1 and 100 to 1000 nM at CRBN-DDB1 (HTRF class, Cereblon binding).
Consider `CC(C)(C(=O)NCc1cc(Cl)c(C2CCC(=O)NC2=O)c(Cl)c1)c1ccc2ncoc2n1` (stereo not drawn) [Compound 184], for which the figures for the Dmax on NEK7 (read-out: NEK7 NanoBiT Dmax) and on NEK7 (setting [1]) were 95% and more than 75%, respectively. The DC50 at NEK7 (read-out: NEK7 NanoBiT DC50) is 3 nM; at NEK7 (setting [2]), not above 100 nM. Further, the EC50 was 180 nM on CRBN-DDB1 and 100 to 1000 nM at CRBN-DDB1 (HTRF class, Cereblon binding).
As for `CC(C)(C(=O)NCc1cc(Cl)c(C2CCC(=O)NC2=O)c(Cl)c1)c1cc(C2CC2)on1` (stereo not drawn) [Compound 185], the Dmax on NEK7 (read-out: NEK7 NanoBiT Dmax) was 83%; on NEK7 (setting [1]), more than 75%. In addition, the DC50 was 15 nM at NEK7 (read-out: NEK7 NanoBiT DC50) and not above 100 nM at NEK7 (setting [2]). The EC50 at CRBN-DDB1 was 220 nM; on CRBN-DDB1 (HTRF class, Cereblon binding), 100 to 1000 nM.
For `CC(C)(C(=O)NCc1cc(Cl)c(C2CCC(=O)NC2=O)c(Cl)c1)c1ncc(CC(F)F)cn1` (stereo not drawn) [Compound 186], the greatest degradation seen (Dmax) on NEK7 (read-out: NEK7 NanoBiT Dmax) was 65%; on NEK7 (setting [1]), 50 to 75%. Further, the DC50 on NEK7 (read-out: NEK7 NanoBiT DC50) was 90 nM; on NEK7 (setting [2]), not above 100 nM. Besides, the EC50 on CRBN-DDB1 is 90 nM; at CRBN-DDB1 (HTRF class, Cereblon binding), not above 100 nM.
On to `CC(F)(F)c1cnc(C(C)(C)C(=O)NCc2cc(Cl)c(C3CCC(=O)NC3=O)c(Cl)c2)nc1` (stereo not drawn) [Compound 187], for which the figures for the greatest degradation seen (Dmax) at NEK7 (read-out: NEK7 NanoBiT Dmax) and on NEK7 (setting [1]) were 93% and more than 75%, respectively. Moreover, the DC50 at NEK7 (read-out: NEK7 NanoBiT DC50) is 4 nM; on NEK7 (setting [2]), not above 100 nM. The EC50 is 100 nM at CRBN-DDB1 and 100 to 1000 nM on CRBN-DDB1 (HTRF class, Cereblon binding).
On to `CC(C)(C(=O)NCc1cc(Cl)c(C2CCC(=O)NC2=O)c(Cl)c1)c1ncc(OC(F)F)cn1` (stereo not drawn) [Compound 188], for which the results for the Dmax on NEK7 (read-out: NEK7 NanoBiT Dmax) and at NEK7 (setting [1]) were 93% and more than 75%, respectively. Further, the DC50 at NEK7 (read-out: NEK7 NanoBiT DC50) is 4 nM; at NEK7 (setting [2]), not above 100 nM. For the same molecule, the concentration giving a half-maximal response (EC50) is 80 nM on CRBN-DDB1 and not above 100 nM on CRBN-DDB1 (HTRF class, Cereblon binding).
Regarding `COc1cnc(C(C)(C)C(=O)NCc2cc(Cl)c(C3CCC(=O)NC3=O)c(Cl)c2)nc1` (stereo not drawn) [Compound 189], the Dmax was 94% on NEK7 (read-out: NEK7 NanoBiT Dmax) and more than 75% on NEK7 (setting [1]). Besides, the DC50 at NEK7 (read-out: NEK7 NanoBiT DC50) was 4 nM; at NEK7 (setting [2]) it was not above 100 nM. For the same molecule, the EC50 at CRBN-DDB1 was 70 nM; on CRBN-DDB1 (HTRF class, Cereblon binding) it was not above 100 nM.
Regarding `CC(C)(C(=O)NCc1cc(Cl)c(C2CCC(=O)NC2=O)c(Cl)c1)c1cc2cccnc2cn1` (stereo not drawn) [Compound 190], the Dmax was 90% on NEK7 (read-out: NEK7 NanoBiT Dmax) and more than 75% at NEK7 (setting [1]). Also, the DC50 on NEK7 (read-out: NEK7 NanoBiT DC50) is 6 nM; at NEK7 (setting [2]) it was not above 100 nM. For the same molecule, the EC50 at CRBN-DDB1 is 90 nM; on CRBN-DDB1 (HTRF class, Cereblon binding), not above 100 nM.
Turning to `CC(C)(C(=O)NCc1cc(Cl)c(C2CCC(=O)NC2=O)c(Cl)c1)c1ccc(C(F)(F)F)nn1` (stereo not drawn) [Compound 191], the Dmax at NEK7 (read-out: NEK7 NanoBiT Dmax) is 85%; at NEK7 (setting [1]), more than 75%. Further, the DC50 was 13 nM on NEK7 (read-out: NEK7 NanoBiT DC50) and not above 100 nM at NEK7 (setting [2]). For the same molecule, the EC50 at CRBN-DDB1 was 170 nM; at CRBN-DDB1 (HTRF class, Cereblon binding), 100 to 1000 nM.
For `CC(C)(C(=O)NCc1cc(Cl)c(C2CCC(=O)NC2=O)c(Cl)c1)c1nc(C2CC2)co1` (stereo not drawn) [Compound 193], the Dmax on NEK7 (read-out: NEK7 NanoBiT Dmax) is 87%; on NEK7 (setting [1]) it was more than 75%. Further, the DC50 on NEK7 (read-out: NEK7 NanoBiT DC50) is 10 nM; at NEK7 (setting [2]) it was not above 100 nM. The EC50 on CRBN-DDB1 is 80 nM; on CRBN-DDB1 (HTRF class, Cereblon binding), not above 100 nM.
